Converted amounts (≈) assume the structure as drawn. Read-outs that look alike come from different tables or passages of the source.
Assays:
[1] = cited from earlier work
[2] = set-up: method as in PMID 22124669, PMID 20618337; settings: humans; cited from earlier work
[3] = tested on: healthy dogs; assay: Study B: histopathology of tissues after treatment; type: in vivo; settings: nine dogs, three IV doses of 150 mg/m^2
Description: (§1) Study B involved 9 healthy dogs (8 females and 1 male), including the 4 females from Study A after wash-out and upon confirmation of regular laboratory evaluations. […] Tolerability evaluations were performed via clinical examinations and blood sampling for laboratory evaluation after each treatment. For toxicity assessments, 4, 6, and 8 h after the final administration, the animals were euthanized for tissue collection and histopathological evaluation.
Hemograms were performed following blood collection.

[4] = Study B: 17-AAG pharmacokinetics in subcutaneous interstitial fluid (tissue cages, HPLC); type: in vivo; settings: dogs; for AUC(0-t) / Cmax / half-life: both sexes, dog, subcutaneous interstitial fluid, iv, mean ± SD; for half-life: read-out: t ½ (converted)
Description: as §1
In Study B, samples of interstitial fluid were collected from tissue cages implanted subcutaneously in the dogs. These cages were prepared based on a protocol previously described by Stegemann et al.. They were made from non-toxic, siliconized, flexible, non-irritant PVC tubes with dimensions of 3.5 cm long, an internal diameter of 3 mm, and an external diameter of 5 mm. Three autoclaved cages were surgically implanted between the scapula of each animal under sedation (xylazine 2%, Syntec, Tambore, SP, Brazil) and local anesthesia (lidocaine 2% and epinephrine 0.002%, Syntec). Before and after surgical procedures, antibiotics (enrofloxacin–5 mg/Kg, Syntec) and an anti-inflammatory (ketoprofen 1%–1 mL/Kg, CEVA, Paulínia, SP, Brazil) drug were administered. To allow animals to heal, as well as the formation of the granulation tissue around the cages, a recovery time of 10 days after surgery was considered. The subcutaneous interstitial fluid was collected by percutaneous puncture using a 21 G needle and 20 mL syringe.
For the mobile phase, acetonitrile (ACN, J.T.Baker®, Philadelphia, PA, USA) and water with 1% acetic acid (J.T.Baker®)were used. Briefly, aliquots of 200 µL of plasma or 100 µL of subcutaneous interstitial liquid were placed in a 1.5 mL microcentrifuge tube. Subsequently, 600 µL and 300 µL of ACN were added to all plasma and subcutaneous interstitial liquid samples, respectively. The mixture was vortexed for 30 s, followed by centrifugation at 3400× g for 10 min. Next, 500 µL of the plasma supernatant and 250 µL of the subcutaneous interstitial fluid were pipetted into a new vial. The method was validated in accordance with the International Council for Harmonization (ICH) technical requirements for the evaluation of medicinal products. […] No matrix interferences were observed. Two calibrated plasma curves of 17-AAG were validated with different injection volumes. […] Data acquisition and processing were performed using LabSolutions software (Version 5.3).
Cmax, half-life (t ½), distribution volume, and clearance were also determined. Data were analyzed in Excel and WinNonlin using a mono-compartmental model.

[5] = set-up: method as in earlier work; settings: mice with MCF-7 breast tumors, 40 mg/kg intravenous dose; ref National Institute of Cancer's guide, https://dtp.cancer.gov/timeline/posters/AGG_Geldamycin.pdf; cited from earlier work

SMILES: C=CCNC1=C2C[C@@H](C)C[C@H](OC)[C@H](O)[C@@H](C)/C=C(\C)[C@H](OC(N)=O)[C@@H](OC)/C=C\C=C(/C)C(=O)NC(=CC1=O)C2=O [17-AAG, 17-(allylamino)-17-demethoxygeldanamycin]
- Solubility in Dimethyl Sulfoxide (DMSO) ([1]; according to PubChem): 100 mM (≈ 58.6 mg/mL)
- Solubility in ethanol ([1]; according to PubChem): 10 mM (≈ 5.86 mg/mL)
- Aqueous solubility ([1]; aqueous): approximately 0.01 mg/mL
- half-life [2]: 3 to 6 h
- Histopathological alterations in the lung and heart [3]: no histopathological alterations
- Concentration in subcutaneous interstitial fluid (tissue cages) ([4]; Study B, 150 mg/m^2 IV, at all times evaluated / at 48 h intervals): ~100 ng/mL
- AUC(0-t) ([4]; 150 mg/m2, AUC 0–8 h, Study B, 1st administration of 150 mg/m^2 IV): 2660 ± 437 ng·h/mL
- AUC(0-t) ([4]; 150 mg/m2, AUC 0–8 h, Study B, 2nd administration of 150 mg/m^2 IV): 2910 ± 686 ng·h/mL
- AUC(0-t) ([4]; 150 mg/m2, AUC 0–8 h, Study B, 3rd administration of 150 mg/m^2 IV): 2730 ± 1440 ng·h/mL
- Cmax ([4]; 150 mg/m2, Study B, 1st administration of 150 mg/m^2 IV): 704 ± 332 ng/mL
- Cmax ([4]; 150 mg/m2, Study B, 2nd administration of 150 mg/m^2 IV): 736 ± 294 ng/mL
- Cmax ([4]; 150 mg/m2, Study B, 3rd administration of 150 mg/m^2 IV): 726 ± 401 ng/mL
- AUC(0-t) ([4]; 150 mg/m2, Study B, 1st administration of 150 mg/m^2 IV, read-out: AUC 0–4 h): 1820 ± 430 ng·h/mL
- AUC(0-t) ([4]; 150 mg/m2, Study B, 1st administration of 150 mg/m^2 IV, read-out: AUC 0–6 h): 2300 ± 409 ng·h/mL
- AUC(0-t) ([4]; 150 mg/m2, Study B, 1st administration of 150 mg/m^2 IV, read-out: AUC 0–24 h): 4760 ± 333 ng·h/mL
- AUC(0-t) ([4]; 150 mg/m2, Study B, 1st administration of 150 mg/m^2 IV, read-out: AUC 0–47.5 h): 7380 ± 1360 ng·h/mL
- half-life ([4]; 150 mg/m2, Study B, 1st of three IV administrations of 150 mg/m^2 at 48 h intervals): 38 ± 16 h
- AUC(0-t) ([4]; 150 mg/m2, Study B, 2nd administration of 150 mg/m^2 IV, read-out: AUC 0–4 h): 1940 ± 618 ng·h/mL
- AUC(0-t) ([4]; 150 mg/m2, Study B, 2nd administration of 150 mg/m^2 IV, read-out: AUC 0–6 h): 2550 ± 638 ng·h/mL
- AUC(0-t) ([4]; 150 mg/m2, Study B, 2nd administration of 150 mg/m^2 IV, read-out: AUC 0–24 h): 4070 ± 700 ng·h/mL
- AUC(0-t) ([4]; 150 mg/m2, Study B, 2nd administration of 150 mg/m^2 IV, read-out: AUC 0–47.5 h): 7050 ± 2190 ng·h/mL
- half-life ([4]; 150 mg/m2, Study B, 2nd of three IV administrations of 150 mg/m^2 at 48 h intervals): 28 ± 9 h
- AUC(0-t) ([4]; 150 mg/m2, Study B, 3rd administration of 150 mg/m^2 IV, read-out: AUC 0–4 h): 895 ± 408 ng·h/mL
- AUC(0-t) ([4]; 150 mg/m2, Study B, 3rd administration of 150 mg/m^2 IV, read-out: AUC 0–6 h): 2040 ± 1100 ng·h/mL
- AUC(0-t) ([4]; 150 mg/m2, Study B, 3rd administration of 150 mg/m^2 IV, read-out: AUC 0–24 h): 3500 ± 2420 ng·h/mL
- maximum plasma half-life [5]: 4.4 h

Source: publication PMC11206245 (Pharmaceuticals, 2024)
